Data from US20100216791A1, “PYRIDINYLQUINAZOLINAMINE DERIVATIVES AND THEIR USE AS B-RAF INHIBITORS” (ASTRAZENECA, priority 2006, published 2010).

Target: Mutant B-Raf (V600E) enzyme (MT B-Raf) (Homo sapiens, UniProt P15056, V600E)
Assay: biochemical
Details: B-Raf Alpha screen comparable to the described assay; phosphorylation of biotinylated HIS-MEK-AVI; results may be an average of two or more results

Mutant B-Raf (V600E) enzyme (MT B-Raf), sequence (P15056 whole entry V600E): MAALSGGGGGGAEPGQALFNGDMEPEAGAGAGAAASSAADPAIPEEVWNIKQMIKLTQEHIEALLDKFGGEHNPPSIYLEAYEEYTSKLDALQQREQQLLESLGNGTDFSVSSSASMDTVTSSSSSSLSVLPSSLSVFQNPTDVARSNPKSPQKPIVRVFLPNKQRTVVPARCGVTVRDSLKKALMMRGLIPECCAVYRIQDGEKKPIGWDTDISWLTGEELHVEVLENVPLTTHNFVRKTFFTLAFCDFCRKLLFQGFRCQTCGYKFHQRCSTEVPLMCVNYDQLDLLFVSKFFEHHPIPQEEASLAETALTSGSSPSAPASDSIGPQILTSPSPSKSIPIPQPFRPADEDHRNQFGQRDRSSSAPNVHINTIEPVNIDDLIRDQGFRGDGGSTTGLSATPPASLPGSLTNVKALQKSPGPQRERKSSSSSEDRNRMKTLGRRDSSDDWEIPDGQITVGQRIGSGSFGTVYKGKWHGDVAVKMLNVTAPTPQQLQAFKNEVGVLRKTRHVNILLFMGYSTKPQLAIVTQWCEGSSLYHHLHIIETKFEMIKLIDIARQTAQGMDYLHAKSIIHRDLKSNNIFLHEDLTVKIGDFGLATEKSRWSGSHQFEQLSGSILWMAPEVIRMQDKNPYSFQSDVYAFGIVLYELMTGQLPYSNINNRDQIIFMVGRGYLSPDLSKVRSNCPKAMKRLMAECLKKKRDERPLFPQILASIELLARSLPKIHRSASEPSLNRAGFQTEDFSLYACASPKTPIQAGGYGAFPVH

Nc1ccc(Nc2ncc3cc(-c4ccncc4)ccc3n2)cc1 [Example 137] showed an IC50 of 80 nM.
COc1ccc(Nc2ncc3cc(-c4ccncc4)ccc3n2)cc1 [Example 41, N-(4-Methoxyphenyl)-6-pyridin-4-ylquinazolin-2-amine] gave an IC50 of 460 nM.
Oc1ccc(Nc2ncc3cc(-c4ccncc4)ccc3n2)cc1 [Example 81, 4-[(6-Pyridin-4-ylquinazolin-2-yl)amino]phenol] gave an IC50 of 61 nM.
COc1cc(Nc2ncc3cc(-c4ccncc4)ccc3n2)ccc1C [Example 87, N-(3-Methoxy-4-methylphenyl)-6-pyridin-4-ylquinazolin-2-amine] was tested, and the IC50 was 2200 nM.
With CNCCNC(=O)c1ccnc(Nc2ncc3cc(-c4ccncc4)ccc3n2)c1 [Example 66, N-[2-(Methylamino)ethyl]-2-[(6-pyridin-4-ylquinazolin-2-yl)amino]isonicotinamide] the IC50 was 700 nM.
Work on CN(CCO)Cc1ccc(Nc2ncc3cc(-c4ccncc4)ccc3n2)cc1 [Example 75, 2-(Methyl{4-[(6-pyridin-4-ylquinazolin-2-yl)amino]benzyl}amino)ethanol] yielded an IC50 of 24 nM.
With c1cc(Nc2ncc3cc(-c4ccncc4)ccc3n2)cc(N2CCOCC2)c1 [Example 85, N-(3-Morpholin-4-ylphenyl)-6-pyridin-4-ylquinazolin-2-amine] the IC50 was 390 nM.
Compound CN(C)[C@H]1CCN(C(=O)c2ccc(Nc3ncc4cc(-c5ccncc5)ccc4n3)cc2)C1 [Example 118] has an IC50 of 93 nM.
With c1cc(-c2ccc3nc(Nc4ccc(N5CCOCC5)nc4)ncc3c2)ccn1 [Example 90, N-(6-Morpholin-4-ylpyridin-3-yl)-6-pyridin-4-ylquinazolin-2-amine] the IC50 was 110 nM.
For CC(c1ccc(Nc2ncc3cc(-c4ccncc4)ccc3n2)cc1)N(C)C (single isomer, unassigned) [Example 139], the IC50 was 36 nM.
O=S(=O)(c1cccc(Nc2ncc3cc(-c4ccncc4)ccc3n2)c1)N1CCOCC1 [Example 102, N-[3-(Morpholin-4-ylsulfonyl)phenyl]-6-pyridin-4-ylquinazolin-2-amine] was tested, and the IC50 was 520 nM.
Cc1cc(Nc2ncc3cc(-c4ccncc4)ccc3n2)ccc1C(=O)NCCN1CCCCC1 [Example 51, 2-Methyl-N-(2-(piperidin-1-yl)ethyl)-4-(6-(pyridin-4-yl)quinazolin-2-ylamino)benzamide] was tested, and the IC50 was 130 nM.
O=C(NCCc1ccccn1)c1ccc(Nc2ncc3cc(-c4ccncc4)ccc3n2)cc1 [Example 20, N-(2-Pyridin-2-ylethyl)-4-[(6-pyridin-4-ylquinazolin-2-yl)amino]benzamide] was tested, and the IC50 was 250 nM.
CC(=O)c1ccc(Nc2ncc3cc(-c4ccncc4)ccc3n2)cc1 [Example 53, 1-{4-[(6-Pyridin-4-ylquinazolin-2-yl)amino]phenyl}ethanone] gave an IC50 of 210 nM.
Work on CN(C)c1ccc(Nc2ncc3cc(-c4ccncc4)ccc3n2)cc1 [Example 107, N,N-Dimethyl-N′-(6-pyridin-4-ylquinazolin-2-yl)benzene-1,4-diamine] yielded an IC50 of 1900 nM.
CC(c1ccc(Nc2ncc3cc(-c4ccncc4)ccc3n2)cc1)N(C)C (stereo not shown) [Example 133] gave an IC50 of 46 nM.
With O=C(NCCCN1CCOCC1)c1ccc(Nc2ncc3cc(-c4ccncc4)ccc3n2)cc1 [Example 22, N-(3-Morpholin-4-ylpropyl)-4-[(6-pyridin-4-ylquinazolin-2-yl)amino]benzamide] the IC50 was 91 nM.
For COCCNC(=O)c1ccc(Nc2ncc3cc(-c4ccncc4)ccc3n2)cc1Cl [Example 10, 2-Chloro-N-(2-methoxyethyl)-4-[(6-pyridin-4-ylquinazolin-2-yl)amino]benzamide], the IC50 was 350 nM.
OCc1ccc(Nc2ncc3cc(-c4ccncc4)ccc3n2)cc1 [Example 78, {4-[(6-Pyridin-4-ylquinazolin-2-yl)amino]phenyl}methanol] was tested, and the IC50 was 66 nM.
For CCOc1ccc(Nc2ncc3cc(-c4ccncc4)ccc3n2)cc1 [Example 97, N-(4-Ethoxyphenyl)-6-pyridin-4-ylquinazolin-2-amine], the IC50 was 450 nM.
Compound O=C(NCC1CCCO1)c1ccc(Nc2ncc3cc(-c4ccncc4)ccc3n2)cc1 (stereo not shown) [Example 14, 4-[(6-Pyridin-4-ylquinazolin-2-yl)amino]-N-(tetrahydrofuran-2-ylmethyl)benzamide] has an IC50 of 210 nM.
O=S(=O)(c1cccc(Nc2ncc3cc(-c4ccncc4)ccc3n2)c1)N1CCCC1 [Example 93, 6-Pyridin-4-yl-N-[3-(pyrrolidin-1-ylsulfonyl)phenyl]quinazolin-2-amine] showed an IC50 of 3000 nM.
In the case of CC(c1ccc(Nc2ncc3cc(-c4ccncc4)ccc3n2)cc1)N(C)CCCO (stereo not shown) [Example 135], the IC50 is reported as 29 nM.
In the case of O=C(NCCN1CCCCC1)c1ccc(Nc2ncc3cc(-c4ccncc4)ccc3n2)cc1 [Example 27, N-(2-Piperidin-1-ylethyl)-4-[(6-pyridin-4-ylquinazolin-2-yl)amino]benzamide], the IC50 is reported as 87 nM.
Compound CCCNC(C)c1ccc(Nc2ncc3cc(-c4ccncc4)ccc3n2)cc1 (single isomer, unassigned) [Example 142] has an IC50 of 12 nM.
In the case of CS(=O)(=O)c1ccc(Nc2ncc3cc(-c4ccncc4)ccc3n2)cc1 [Example 103, N-[4-(Methylsulfonyl)phenyl]-6-pyridin-4-ylquinazolin-2-amine], the IC50 is reported as 62 nM.
With CN(C)CCCNC(=O)c1ccc(Nc2ncc3cc(-c4ccncc4)ccc3n2)cc1 [Example 31, N-[3-(Dimethylamino)propyl]-4-[(6-pyridin-4-ylquinazolin-2-yl)amino]benzamide] the IC50 was 82 nM.
With O=C1CCCN1c1ccc(Nc2ncc3cc(-c4ccncc4)ccc3n2)cc1 [Example 54, 1-{4-[(6-Pyridin-4-ylquinazolin-2-yl)amino]phenyl}pyrrolidin-2-one] the IC50 was 120 nM.
In the case of COCCNC(=O)c1ccc(Nc2ncc3cc(-c4ccncc4)ccc3n2)nc1 [Example 18, N-(2-Methoxyethyl)-6-[(6-pyridin-4-ylquinazolin-2-yl)amino]nicotinamide], the IC50 is reported as 1300 nM.
For Cn1ccc(Nc2ncc3cc(-c4ccncc4)ccc3n2)n1 [Example 88, N-(1-Methyl-1H-pyrazol-3-yl)-6-pyridin-4-ylquinazolin-2-amine], the IC50 was 1820 nM.
Work on CC(NCCO)c1ccc(Nc2ncc3cc(-c4ccncc4)ccc3n2)cc1 (stereo not shown) [Example 57, 2-[(1-{4-[(6-Pyridin-4-ylquinazolin-2-yl)amino]phenyl}ethyl)amino]ethanol] yielded an IC50 of 29 nM.
Work on O=S(=O)(c1ccc(Nc2ncc3cc(-c4ccncc4)ccc3n2)cc1)N1CCCC1 [Example 96, 6-Pyridin-4-yl-N-[4-(pyrrolidin-1-ylsulfonyl)phenyl]quinazolin-2-amine] yielded an IC50 of 740 nM.
CC(C)(C)OC(=O)NCCNC(=O)c1ccc(Nc2ncc3cc(-c4ccncc4)ccc3n2)cc1 [Example 25, tert-Butyl [2-({4-[(6-pyridin-4-ylquinazolin-2-yl)amino]benzoyl}amino)ethyl]carbamate] was tested, and the IC50 was 390 nM.
O=C(NCCN1CCOCC1)c1ccc(Nc2ncc3cc(-c4ccncc4)ccc3n2)cc1 [Example 5, N-(2-Morpholin-4-ylethyl)-4-[(6-pyridin-4-ylquinazolin-2-yl)amino]benzamide] was tested, and the IC50 was 180 nM.
For CN1CCCN(C(=O)c2ccc(Nc3ncc4cc(-c5ccncc5)ccc4n3)cc2)CC1 [Example 116, N-{4-[(4-Methyl-1,4-diazepan-1-yl)carbonyl]phenyl}-6-pyridin-4-ylquinazolin-2-amine], the IC50 was 63 nM.
For COc1cc(Nc2ncc3cc(-c4ccncc4)ccc3n2)cc(C(F)(F)F)c1 [Example 101, N-[3-Methoxy-5-(trifluoromethyl)phenyl]-6-pyridin-4-ylquinazolin-2-amine], the IC50 was 1700 nM.
c1cc(-c2ccc3nc(Nc4ccc5c(c4)OCCO5)ncc3c2)ccn1 [Example 45, N-(2,3-Dihydro-1,4-benzodioxin-6-yl)-6-pyridin-4-ylquinazolin-2-amine] showed an IC50 of 300 nM.
CN1CCN(Cc2ccc(Nc3ncc4cc(-c5ccncc5)ccc4n3)cc2)CC1 [Example 132] gave an IC50 of 73 nM.
Work on NCCNC(=O)c1ccc(Nc2ncc3cc(-c4ccncc4)ccc3n2)cc1 [Example 63, N-(2-Aminoethyl)-4-[(6-pyridin-4-ylquinazolin-2-yl)amino]benzamide] yielded an IC50 of 98 nM.
Work on O=C(NCC(O)CO)c1ccc(Nc2ncc3cc(-c4ccncc4)ccc3n2)cc1 (stereo not shown) [Example 61, N-(2,3-Dihydroxypropyl)-4-[(6-pyridin-4-ylquinazolin-2-yl)amino]benzamide] yielded an IC50 of 100 nM.
COCC(C)NC(=O)c1ccc(Nc2ncc3cc(-c4ccncc4)ccc3n2)cc1 (stereo not shown) [Example 32, N-(2-Methoxy-1-methylethyl)-4-[(6-pyridin-4-ylquinazolin-2-yl)amino]benzamide] was tested, and the IC50 was 130 nM.
Work on CCN(CCO)c1ccc(Nc2ncc3cc(-c4ccncc4)ccc3n2)cc1 [Example 92, 2-(Ethyl{4-[(6-pyridin-4-ylquinazolin-2-yl)amino]phenyl}amino)ethanol] yielded an IC50 of 92 nM.
Work on Cc1cc(Nc2ncc3cc(-c4ccncc4)ccc3n2)ccc1C(C)N(C)P(C)(C)=O (stereo not shown) [Example 130] yielded an IC50 of 120 nM.
CN(C)CCOc1ccc(Nc2ncc3cc(-c4ccncc4)ccc3n2)cc1 [Example 40, N-{4-[2-(Dimethylamino)ethoxy]phenyl}-6-pyridin-4-ylquinazolin-2-amine] gave an IC50 of 160 nM.
With O=C(NC1CCNCC1)c1ccc(Nc2ncc3cc(-c4ccncc4)ccc3n2)cc1 [Example 67, N-Piperidin-4-yl-4-[(6-pyridin-4-ylquinazolin-2-yl)amino]benzamide] the IC50 was 110 nM.
In the case of Fc1cccc(Nc2ncc3cc(-c4ccncc4)ccc3n2)c1 [Example 98, N-(3-Fluorophenyl)-6-pyridin-4-ylquinazolin-2-amine], the IC50 is reported as 630 nM.
Work on COCCNC(=O)c1ccnc(Nc2ncc3cc(-c4ccncc4)ccc3n2)c1 [Example 37, N-(2-Methoxyethyl)-2-[(6-pyridin-4-ylquinazolin-2-yl)amino]isonicotinamide] yielded an IC50 of 1700 nM.
CC(C)NCCNC(=O)c1ccc(Nc2ncc3cc(-c4ccncc4)ccc3n2)cc1 [Example 28, N-[2-(Isopropylamino)ethyl]-4-[(6-pyridin-4-ylquinazolin-2-yl)amino]benzamide] gave an IC50 of 140 nM.
Work on O=C(O)c1ccc(Nc2ncc3cc(-c4ccncc4)ccc3n2)cc1 [Example 122, 4-(6-(Pyridin-4-yl)quinazolin-2-ylamino)benzoic acid] yielded an IC50 of 78 nM.
